# Experimental data taken from patent US8980938B2, “CXCR2 inhibitors” (Sanofi, priority 2006, dated 2015).
# Molecular target: human CXCR2 (Homo sapiens (Human), UniProt P25025)
# Assay: CXCR2 inhibition: calcium fluorescence assay (FLIPR) with chemokine IL-8
# Assay type: cell-based
# Conditions: CHO-K1 cells stably transfected with human CXCR2 and Gα16, Fluo-4 calcium response
# From the text: Determination of CXCR2 Inhibition: Calcium Fluorescence Assay (FLIPR)
# The assay is based on the detection of intracellular calcium changes detected by the selective, calcium-chelating dye, Fluo-4 (Molecular Probes). A large fluorescence intensity increase is observed upon calcium association with Fluo-4. The dye is delivered to the cell interior using an acetoxymethylester form of Fluo-4, where the intracellular esterase activity results in the charged species being released and trapped within the cytoplasm of the cell. […] By co-expressing the CXCR2 receptor and the promiscuous Gα16 protein, activation of this chemokine receptor is directed into this phospholipase C cascade resulting in intracellular calcium mobilization.
# The CHO-K1 cells stably transfected with human CXCR2 and the promiscuous Gα16 protein are maintained in a log phase of growth at 37° C. and 5% CO2 in the following media: Iscove's, 10% FBS, 1X Penicillin-Streptomycin, 400 μg/ml G418 and 350 μg/ml Zeocin. Approximately 24-48 hours prior to the assay, 20,000-30,000 cells/well are plated onto a 96-well black/clear bottomed assay plate (Becton Dickinson) with a well volume of 180 μl. For dye loading the culture medium is carefully removed and replaced by 100 μl/well dye solution (4 μM Fluo-4 in 135 mM NaCl, 5 mM KCl, 1 mM magnesium sulphate, 5 mM glucose, 20 mM hepes, 2.5 mM probenecid; pH 7.4). Cells are incubated for 1 h at 37° C., and then washed 3× with buffer. After washing 90 μl buffer/well are left. Increasing concentrations of compound is added in 45 μl buffer (4× concentrated) followed by 10 min incubation at 37° C. Then the chemokine (10-100 nM) is applied in 45 μl buffer (4× concentrated) and the measurement is performed for 2 min. The IC50 value of a compound can be determined by calculation of % inhibition of total calcium response to the chemokine.
# CXCR2 Inhibition with Chemokine IL-8 for Selected Example Compounds: […]
# human CXCR2, sequence (P25025 whole entry): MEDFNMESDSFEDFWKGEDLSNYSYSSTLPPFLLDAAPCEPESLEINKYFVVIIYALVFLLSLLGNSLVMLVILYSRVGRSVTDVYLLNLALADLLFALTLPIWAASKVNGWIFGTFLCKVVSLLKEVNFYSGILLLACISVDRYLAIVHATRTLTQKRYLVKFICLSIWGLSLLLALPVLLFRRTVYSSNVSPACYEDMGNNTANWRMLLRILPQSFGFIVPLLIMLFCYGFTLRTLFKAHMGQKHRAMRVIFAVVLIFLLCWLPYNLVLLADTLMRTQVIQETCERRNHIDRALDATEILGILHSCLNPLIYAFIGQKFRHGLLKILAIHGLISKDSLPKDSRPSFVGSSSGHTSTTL
row,Compound,IC50
1,"CC(C)(NC(=O)c1ccc2c(c1OCCCOc1ccccc1)CCCC2)C(=O)O [Example 7, 2-Methyl-2-{[1-(3-phenoxy-propoxy)-5,6,7,8-tetrahydro-naphthalene-2-carbonyl]-amino}-propionic acid]",2.1 µM
2,"CC(C)(NC(=O)c1ccc2c(c1OCCCCc1ccccc1)CCCC2)C(=O)O [Example 5, 2-Methyl-2-{[1-(4-phenyl-butoxy)-5,6,7,8-tetrahydro-naphthalene-2-carbonyl]-amino}-propionic acid]",2 µM
3,"CC(C)(NC(=O)c1ccc2ccsc2c1OCCOc1ccc(F)cc1)C(=O)O [Example 11, 2-({7-[2-(4-Fluoro-phenoxy)-ethoxy]-benzo[b]thiophene-6-carbonyl}-amino)-2-methyl-propionic acid]",0.8 µM
4,"CC(C)(NC(=O)c1ccc2ccsc2c1OCCCc1ccccc1)C(=O)O [Example 8, 2-Methyl-2-{[7-(3-phenyl-propoxy)-benzo[b]thiophene-6-carbonyl]-amino}-propionic acid]",0.6 µM

# Results, then the compound that gave them:
row,IC50,Compound
1,1 µM,"CC(C)(NC(=O)c1ccc2c(c1OCCOc1ccccc1)CCCC2)C(=O)O [Example 3, 2-Methyl-2-{[1-(2-phenoxy-ethoxy)-5,6,7,8-tetrahydro-naphthalene-2-carbonyl]-amino}-propionic acid]"
2,1.4 µM,"CC(C)(NC(=O)c1ccc2c(c1OCCC1CCCCC1)CCCC2)C(=O)O [Example 2, 2-{[1-(2-Cyclohexyl-ethoxy)-5,6,7,8-tetrahydro-naphthalene-2-carbonyl]-amino}-2-methyl-propionic acid]"
3,1.7 µM,"CC(C)(NC(=O)c1ccc2sccc2c1OCCOc1ccccc1)C(=O)O [Example 12, 2-Methyl-2-{[4-(2-phenoxy-ethoxy)-benzo[b]thiophene-5-carbonyl]-amino}-propionic acid]"
